According to the supplement of paper PMC10307832:

Columns and labels:
Assay in all cases: relative viability (nuclei count vs DMSO), 5 days (fraction); higher = more cells survive
[1] = compound: CN(C)C/C=C/C(=O)Nc1cc2c(Nc3ccc(F)c(Cl)c3)ncnc2cc1O[C@H]1CCOC1 [Afatinib] + CCNC(=O)c1noc(-c2cc(C(C)C)c(O)cc2O)c1-c1ccc(CN2CCOCC2)cc1 [Luminespib] (partner 0.01 µM)
Summary of the method: (§1)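 Lung cancer cell lines, seeded in 1536-well plates, were treated the following day by pin tool with a single drug or with five library-drug doses (not always all listed) in √10 steps on top of a fixed anchor-drug dose. Cells were fixed and nuclei stained in one step after 5 days, and nuclei were counted. Relative viability is the nuclei count for treated wells divided by that for vehicle wells, reported as medians of duplicate plates.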

[2] = compound: CN(C)C/C=C/C(=O)Nc1cc2c(Nc3ccc(F)c(Cl)c3)ncnc2cc1O[C@H]1CCOC1 [Afatinib] + CC(C)C[C@H](NC(=O)[C@H](Cc1ccccc1)NC(=O)c1cnccn1)B(O)O [Bortezomib] (partner 0.002 µM)
Summary of the method: as §1

[3] = compound: CN(C)C/C=C/C(=O)Nc1cc2c(Nc3ccc(F)c(Cl)c3)ncnc2cc1O[C@H]1CCOC1 [Afatinib] + Cc1nc(Nc2ncc(C(=O)Nc3c(C)cccc3Cl)s2)cc(N2CCN(CCO)CC2)n1 [Dasatinib] (partner 0.075 µM)
Summary of the method: as §1

[4] = compound: CN(C)C/C=C/C(=O)Nc1cc2c(Nc3ccc(F)c(Cl)c3)ncnc2cc1O[C@H]1CCOC1 [Afatinib] + CC(=O)c1c(C)c2cnc(Nc3ccc(N4CCNCC4)cn3)nc2n(C2CCCC2)c1=O [Palbociclib] (partner 0.5 µM)
Summary of the method: as §1

| Cell Line | relative viability ([1]; first compound 0.005 µM) | relative viability ([1]; first compound 0.01581 µM) | relative viability ([1]; first compound 0.05 µM) | relative viability ([1]; first compound 0.1581 µM) | relative viability ([1]; first compound 0.5 µM) | relative viability ([2]; first compound 0.005 µM) | relative viability ([2]; first compound 0.01581 µM) | relative viability ([2]; first compound 0.05 µM) | relative viability ([2]; first compound 0.1581 µM) | relative viability ([2]; first compound 0.5 µM) | relative viability ([3]; first compound 0.005 µM) | relative viability ([3]; first compound 0.01581 µM) | relative viability ([3]; first compound 0.05 µM) | relative viability ([3]; first compound 0.1581 µM) | relative viability ([3]; first compound 0.5 µM) | relative viability ([4]; first compound 0.005 µM) | relative viability ([4]; first compound 0.01581 µM) | relative viability ([4]; first compound 0.05 µM) | relative viability ([4]; first compound 0.1581 µM) | relative viability ([4]; first compound 0.5 µM) |
| --- | --- | --- | --- | --- | --- | --- | --- | --- | --- | --- | --- | --- | --- | --- | --- | --- | --- | --- | --- | --- |
| NCI-H1792 | 0.389 | 0.695 | 0.464 | 0.376 | 0.41 | 0.841 | 0.759 | 0.975 | 0.906 | 0.938 | 0.657 | 0.84 | 0.748 | 0.657 | 0.911 | 0.73 | 0.661 | 0.63 | 0.599 | 0.651 |
| NCI-H1355 | 0.703 | 0.685 | 0.642 | 0.647 | 0.582 | 1.26 | 1.16 | 1.29 | 1.03 | 1.02 | 0.665 | 0.742 | 0.68 | 0.642 | 0.643 | 0.397 | 0.338 | 0.351 | 0.274 | 0.315 |
| SW 1573 | 0.141 | 0.262 | 0.247 | 0.214 | 0.214 | 1.12 | 1.07 | 1.05 | 0.98 | 1.1 | 0.355 | 0.438 | 0.528 | 0.475 | 0.417 | 0.451 | 0.364 | 0.404 | 0.306 | 0.362 |
| NCI-H2347 | 0.295 | 0.352 | 0.555 | 0.404 | 0.316 | 1.06 | 0.919 | 0.81 | 0.865 | 0.728 | 0.34 | 0.318 | 0.453 | 0.269 | 0.288 | 0.415 | 0.446 | 0.445 | 0.418 | 0.432 |
| LCLC-97TM1 | 0.785 | 0.862 | 0.708 | 0.722 | 0.68 | 0.733 | 0.646 | 0.648 | 0.463 | 0.619 | 0.926 | 0.766 | 0.812 | 0.709 | 0.842 | 0.222 | 0.232 | 0.23 | 0.239 | 0.201 |
| EMC-BAC-2 | 1.23 | 1.13 | 1.13 | 1.04 | 1.16 | 1.03 | 1.05 | 1 | 0.927 | 1.03 | 0.314 | 0.302 | 0.33 | 0.315 | 0.296 | 0.539 | 0.531 | 0.551 | 0.498 | 0.519 |
| NCI-H1975 | 0.199 | 0.18 | 0.199 | 0.122 | 0.169 | 0.358 | 0.345 | 0.309 | 0.171 | 0.189 | 0.455 | 0.386 | 0.306 | 0.15 | 0.11 | 0.72 | 0.469 | 0.472 | 0.253 | 0.21 |
| BEN | 0.366 | 0.24 | 0.261 | 0.549 | 0.288 | 0.918 | 0.651 | 0.882 | 0.957 | 0.905 | 0.337 | 0.283 | 0.323 | 0.336 | 0.313 | 0.447 | 0.565 | 0.535 | 0.455 | 0.484 |
| NCI-H23 | 0.226 | – | 0.2 | 0.209 | 0.216 | 0.951 | 0.948 | 0.995 | 0.901 | 0.904 | 0.682 | 0.69 | 0.754 | 0.884 | 0.83 | 0.561 | 0.469 | 0.482 | 0.486 | 0.448 |
| NCI-H520 | 0.21 | 0.264 | 0.223 | 0.215 | 0.234 | 0.712 | 0.634 | 0.748 | 0.579 | 0.614 | 0.199 | 0.178 | 0.19 | 0.225 | 0.14 | 0.245 | 0.241 | 0.229 | 0.219 | 0.229 |
| CAL-12T | 0.865 | 0.595 | 0.361 | 0.279 | 0.27 | 1.2 | 0.81 | 0.608 | 0.56 | 0.644 | 0.261 | 0.236 | 0.193 | 0.189 | 0.194 | 0.51 | 0.209 | 0.213 | 0.172 | 0.161 |
| EPLC-272H | 0.239 | 0.482 | 0.228 | 0.267 | 0.172 | 0.879 | 0.88 | 0.905 | 0.78 | 0.861 | 0.326 | 0.341 | 0.262 | 0.253 | 0.244 | 0.31 | 0.294 | 0.283 | 0.284 | 0.292 |
| LCLC-103H | 0.779 | 1.04 | 0.968 | 0.784 | 0.917 | 1.01 | 1.09 | 1.05 | 0.929 | 1.12 | 0.424 | 0.454 | 0.48 | 0.459 | 0.483 | 0.452 | 0.495 | 0.443 | 0.436 | 0.485 |
| NCI-H2405 | 0.578 | 0.695 | 0.648 | 0.388 | 0.441 | 1 | 0.953 | 0.975 | 0.931 | 1.01 | 0.243 | 0.201 | 0.207 | 0.219 | 0.196 | 0.555 | 0.562 | 0.57 | 0.513 | 0.508 |
| HCC-15 | 0.352 | 0.56 | 0.313 | 0.48 | 0.34 | 1.04 | 1.09 | 1.04 | 1.04 | 1.03 | 0.609 | 0.646 | 0.617 | 0.609 | 0.642 | 0.743 | 0.753 | 0.702 | 0.755 | 0.746 |
| PC-3 [JPC-3] | 0.54 | 0.402 | 0.445 | 0.277 | 0.415 | 0.516 | 0.351 | 0.315 | 0.406 | 0.303 | 0.46 | 0.339 | 0.286 | 0.25 | 0.33 | 0.484 | 0.444 | 0.441 | 0.362 | 0.397 |
